In this assay the test system is Recombinant human cathepsin A. Put plainly: Cathepsin A inhibitory activity (Bodipy FL-bradykinin substrate, microfluidic capillary electrophoresis). It counts as biochemical. The following applies: read-out: CATH A IC50. The protocol: Pharmacological Tests a) Cathepsin a Inhibitory Activity
Recombinant human cathepsin A (residues 29-480, with a C-terminal 10-His tag; R&D Systems, #1049-SE) was proteolytically activated with recombinant human cathepsin L (R&D Systems, #952-CY). Briefly, cathepsin A was incubated at 10 μg/ml with cathepsin L at 1 μg/ml in activation buffer (25 mM 2-(morpholin-4-yl)-ethanesulfonic acid (MES), pH 6.0, containing 5 mM dithiothreitol (DTT)) for 15 min at 37° C.
The activated cathepsin A was diluted in assay buffer (25 mM MES, pH 5.5, containing 5 mM DTT) and mixed with the test compound (dissolved in assay buffer containing (v/v) 3% DMSO) or, in the control experiments, with the vehicle in a multiple assay plate. After incubation for 15 min at room temperature, as substrate then bradykinin carrying an N-terminal ®Bodipy FL (4,4-difluoro-5,7-dimethyl-4-bora-3a,4a-diaza-s-indacene-3-propionyl) label (JPT Peptide Technologies GmbH; dissolved in assay buffer) was added to the mixture. The final concentration of cathepsin A was 833 ng/ml and the final concentration of labeled bradykinin 2 μM. After incubation for 15 min at room temperature the reaction was stopped by the addition of stop buffer (130 mM 2-(4-(2-hydroxy-ethyl)-piperazin-1-yl)-ethanesulfonic acid, pH 7.4, containing (v/v) 0.013% ®Triton X-100, 0.13% Coating Reagent 3 (Caliper Life Sciences), 6.5% DMSO and 20 μM ebelactone B (Sigma, # E0886)).
Uncleaved substrate and product were then separated by a microfluidic capillary electrophoresis on a LabChip® 3000 Drug Discovery System (12-Sipper-Chip; Caliper Life Sciences) and quantified by determination of the respective peak areas. Substrate turnover was calculated by dividing product peak area by the sum of substrate and product peak areas, and the enzyme activity and the inhibitory effect of the test compound thus quantified.

For orientation: IC50 means the point on the concentration scale where inhibition reaches its midpoint. Turning to `COc1ccc(C)cc1-c1cc(Cl)cc(C(CC(=O)O)c2nnc(C)o2)c1` (stereo not drawn) [compound 169], the half-inhibitory concentration (IC50) was determined as 17 nM.

`COc1ccc(S(C)(=O)=O)cc1-c1cc(Cl)cc(C(CC(=O)O)c2nnc(C)o2)c1` (stereo not drawn) [compound 170]: the IC50 was 109 nM.

For the compound `COc1cccc(C(=O)N2CCCC2)c1-c1cc(Cl)cc(C(CC(=O)O)c2nnc(C)o2)c1` (stereo not drawn) [compound 171], the half-maximal inhibitory concentration (IC50) turned out to be 4210 nM.

Regarding `COc1ccc(-c2cc(Cl)cc(C(CC(=O)O)c3nnc(C)o3)c2)c(OC)c1` (stereo not drawn) [compound 172], the IC50 turned out to be 33 nM.

With `COc1cccc(C(=O)N2CCCC2)c1-c1cc(F)cc(C(CC(=O)O)c2nnc(C)o2)c1` (stereo not drawn) [compound 174], the IC50 stood at 5260 nM.

With `CCOc1ccccc1-c1cc(F)cc(C(CC(=O)O)c2nnc(C)o2)c1` (stereo not drawn) [compound 175], the half-inhibitory concentration (IC50) was determined as 104 nM.

For the compound `COc1ccccc1-c1cc(Cl)cc(C(CC(=O)O)c2nnc(C)o2)c1` (stereo not drawn) [compound 176], the IC50 came out at 10 nM.

As for `CCOc1ccccc1-c1cc(Cl)cc(C(CC(=O)O)c2nnc(C)o2)c1` (stereo not drawn) [compound 177], the half-inhibitory concentration (IC50) is 24 nM.

`COc1ccc(S(C)(=O)=O)cc1-c1cc(F)cc(C(CC(=O)O)c2nnc(C)o2)c1` (stereo not drawn) [compound 178]: the IC50 was determined as 588 nM.

Consider `COc1cccc(F)c1-c1cc(F)cc(C(CC(=O)O)c2nnc(C)o2)c1` (stereo not drawn) [compound 179], for which the 50% inhibitory concentration (IC50) came out at 67 nM.

With `COc1ccc(OC)c(-c2cncc(C(CC(=O)O)c3nnc(C)o3)c2)c1` (stereo not drawn) [compound 180], the IC50 was 3520 nM.

For `COc1ccc(C)cc1-c1cncc(C(CC(=O)O)c2nnc(C)o2)c1` (stereo not drawn) [compound 181], the half-maximal inhibitory concentration (IC50) is 2220 nM.

As for `COc1ccc(C(C)(C)C)cc1-c1cncc(C(CC(=O)O)c2nnc(C)o2)c1` (stereo not drawn) [compound 182], the half-inhibitory concentration (IC50) amounted to 452 nM.

With `COc1ccc(C(C)C)cc1-c1cncc(C(CC(=O)O)c2nnc(C)o2)c1` (stereo not drawn) [compound 183], the IC50 worked out at 1030 nM.

Take `COc1cccc(OC)c1-c1cncc(C(CC(=O)O)c2nnc(C)o2)c1` (stereo not drawn) [compound 184]: the 50% inhibitory concentration (IC50) is 160 nM.

As to `COc1ccc(C(C)C)cc1-c1cccc([C@@H](CC(=O)O)c2nnc(C)o2)c1` [compound 185], the IC50 was determined as 27 nM.

On to `COc1cc(C)cc(OC)c1-c1cncc(C(CC(=O)O)c2nnc(C)o2)c1` (stereo not drawn) [compound 186], for which the 50% inhibitory concentration (IC50) is 343 nM.

With `COc1ccccc1-c1cncc(C(CC(=O)O)c2nnc(C)o2)c1` (stereo not drawn) [compound 190], the IC50 was determined as 5800 nM.

In the case of `COc1ccc(Cl)cc1-c1cncc(C(CC(=O)O)c2nnc(C)o2)c1` (stereo not drawn) [compound 191], the IC50 stood at 3910 nM.

As for `COc1ccc(F)cc1-c1cncc(C(CC(=O)O)c2nnc(C)o2)c1` (stereo not drawn) [compound 192], the half-maximal inhibitory concentration (IC50) was found to be 7070 nM.

Turning to `CCOc1ccccc1-c1cncc(C(CC(=O)O)c2nnc(C)o2)c1` (stereo not drawn) [compound 193], the IC50 is 4270 nM.

As to `COc1ccc(-c2cncc(C(CC(=O)O)c3nnc(C)o3)c2)c(OC)c1` (stereo not drawn) [compound 194], the half-maximal inhibitory concentration (IC50) is 7140 nM.

In the case of `COc1cccc(F)c1-c1cncc(C(CC(=O)O)c2nnc(C)o2)c1` (stereo not drawn) [compound 195], the IC50 worked out at 3900 nM.

As to `COc1ccc(OC(F)(F)F)cc1-c1cncc(C(CC(=O)O)c2nnc(C)o2)c1` (stereo not drawn) [compound 197], the IC50 is 4760 nM.

As to `COc1cccc(Cl)c1-c1cncc(C(CC(=O)O)c2nnc(C)o2)c1` (stereo not drawn) [compound 199], the IC50 stood at 3560 nM.

With `COc1cc(F)ccc1-c1cc(C(CC(=O)O)c2nnc(C)o2)cc(C(F)(F)F)c1` (stereo not drawn) [compound 200], the half-inhibitory concentration (IC50) stood at 35 nM.

`COc1ccc(OC)c(-c2cc(C(CC(=O)O)c3nnc(C)o3)cc(C(F)(F)F)c2)c1` (stereo not drawn) [compound 201]: the half-inhibitory concentration (IC50) amounted to 14 nM.

Regarding `COc1ccc(C)cc1-c1cc(C(CC(=O)O)c2nnc(C)o2)cc(C(F)(F)F)c1` (stereo not drawn) [compound 202], the concentration for half-maximal inhibition (IC50) worked out at 17 nM.

With `COc1ccc(C(C)(C)C)cc1-c1cc(C(CC(=O)O)c2nnc(C)o2)cc(C(F)(F)F)c1` (stereo not drawn) [compound 203], the concentration for half-maximal inhibition (IC50) amounted to 17 nM.

Regarding `COc1ccc(C(C)C)cc1-c1cc(C(CC(=O)O)c2nnc(C)o2)cc(C(F)(F)F)c1` (stereo not drawn) [compound 204], the half-maximal inhibitory concentration (IC50) amounted to 31 nM.

With `COc1cccc(OC)c1-c1cc(C(CC(=O)O)c2nnc(C)o2)cc(C(F)(F)F)c1` (stereo not drawn) [compound 205], the IC50 was found to be 2 nM.

For the compound `COc1cc(C)cc(OC)c1-c1cc(C(CC(=O)O)c2nnc(C)o2)cc(C(F)(F)F)c1` (stereo not drawn) [compound 206], the IC50 was 6 nM.

As for `COc1ccc2c(c1-c1cc(C(CC(=O)O)c3nnc(C)o3)cc(C(F)(F)F)c1)OC(C)(C)C2` (stereo not drawn) [compound 207], the IC50 came out at 10 nM.

As to `Cc1nnc(C(CC(=O)O)c2cc(-c3ccccc3OC(F)(F)F)cc(C(F)(F)F)c2)o1` (stereo not drawn) [compound 208], the IC50 came to 65 nM.

Regarding `COc1ccc(Cl)cc1-c1cc(C(CC(=O)O)c2nnc(C)o2)cc(C(F)(F)F)c1` (stereo not drawn) [compound 209], the IC50 was determined as 17 nM.

As to `CCOc1ccccc1-c1cc(C(CC(=O)O)c2nnc(C)o2)cc(C(F)(F)F)c1` (stereo not drawn) [compound 210], the half-inhibitory concentration (IC50) came to 14 nM.

Take `COc1ccc(-c2cc(C(CC(=O)O)c3nnc(C)o3)cc(C(F)(F)F)c2)c(OC)c1` (stereo not drawn) [compound 211]: the IC50 was found to be 23 nM.

As for `COc1cccc(F)c1-c1cc(C(CC(=O)O)c2nnc(C)o2)cc(C(F)(F)F)c1` (stereo not drawn) [compound 212], the concentration for half-maximal inhibition (IC50) turned out to be 8 nM.

`COc1ccc(OC(F)(F)F)cc1-c1cc(C(CC(=O)O)c2nnc(C)o2)cc(C(F)(F)F)c1` (stereo not drawn) [compound 213]: the half-inhibitory concentration (IC50) amounted to 51 nM.

For the compound `COc1cccc(Cl)c1-c1cc(C(CC(=O)O)c2nnc(C)o2)cc(C(F)(F)F)c1` (stereo not drawn) [compound 214], the IC50 was 17 nM.

Regarding `COc1ccc(S(C)(=O)=O)cc1-c1cc(C(CC(=O)O)c2nnc(C)o2)cc(C(F)(F)F)c1` (stereo not drawn) [compound 215], the IC50 came to 130 nM.

`COc1cccc(C(=O)N2CCCC2)c1-c1cc(C(CC(=O)O)c2nnc(C)o2)cc(C(F)(F)F)c1` (stereo not drawn) [compound 216]: the half-inhibitory concentration (IC50) is 1460 nM.

In the case of `COc1ccccc1-c1cc(C(CC(=O)O)c2nnc(C)o2)cc(C(F)(F)F)c1` (stereo not drawn) [compound 217], the 50% inhibitory concentration (IC50) came to 13 nM.

With `COc1ccc(F)cc1-c1cc(C(CC(=O)O)c2nnc(C)o2)cc(C(F)(F)F)c1` (stereo not drawn) [compound 218], the concentration for half-maximal inhibition (IC50) was 12 nM.

For `COc1cccc(CO)c1-c1cc(C(CC(=O)O)c2nnc(C)o2)cc(C(F)(F)F)c1` (stereo not drawn) [compound 219], the IC50 was 73 nM.

For the compound `COc1c(C)cccc1-c1cc(C(CC(=O)O)c2nnc(C)o2)cc(C(F)(F)F)c1` (stereo not drawn) [compound 220], the half-maximal inhibitory concentration (IC50) stood at 53 nM.

For `COc1ccc(CO)cc1-c1cc(C(CC(=O)O)c2nnc(C)o2)cc(C(F)(F)F)c1` (stereo not drawn) [compound 221], the 50% inhibitory concentration (IC50) amounted to 22 nM.

`COc1ccc(C(C)(C)C#N)cc1-c1cc(F)cc(C(CC(=O)O)c2nnc(C)o2)c1` (stereo not drawn) [compound 222]: the concentration for half-maximal inhibition (IC50) came out at 4 nM.

The values are drawn from patent US9150526B2, “Biaryl-propionic acid derivatives and their use as pharmaceuticals” (SANOFI, priority 2013, dated 2015).
